Source: US20250326785A1, “SODIUM SALT AND ETHANOLAMINE SALT OF 23-HYDROXYTORMENTIC ACID” (HUYABIO International, LLC, priority 2024, published 2025)
Entries after “also recorded” stand apart in the source; their conditions may differ.

Legend:
[1] = Single-dose IV and oral pharmacokinetic study in rabbits; type: in vivo, New Zealand White Rabbits; conditions: rabbit
Text: Eight groups (n=3) of rabbits received single doses of HBI-3802 or the sodium salt (form 5) HBI-3808 either by intravenous dosing or by oral dosing. HBI-3802 was formulated in 20% PG +80% (20% Captisol in pH 7.4 PBS buffer), and HBI-3808 was formulated in 5% NMP+15% EtOH+10% Tween 80+70% (20% Captisol in pH 7.4 PBS buffer). In addition, normal or enteric coated capsules were used to orally deliver the sodium salt (form 5) of HBI-3808. To allow determination of oral absolute bioavailability, both HBI-3802 and HBI-3808 were delivered IV at a dose of 0.3 mg/kg and blood samples obtained at 0, 0.25, 0.5, 0.75, 1,2,4,8,12,24,48, and 72 hours after dosing for derivation of plasma used to determine plasma concentrations by LC-MS. The HBI-3802 0.3 mg/kg plasma concentrations were compared to plasma concentrations obtained at the same time points from rabbits receiving single oral doses of […] at 1 or 5 mg/kg. The HBI-3808 0.3 mg/kg plasma concentrations were compared to plasma concentrations from groups of rabbits receiving oral gavage of 1 mg/kg HBI-3808 solution or 5 mg/kg HBI-3808 solution and from rabbits receiving 5 mg/kg of the sodium salt (form 5) of HBI-3808 in normal capsules or in enteric coated capsules.

[2] = Varying temperature (VT)-XRPD; type: physicochemical; conditions: heating 25 to 250° C. (ethanolamine salt to 300° C.)
Description: Varying temperature (VT)-XRPD was carried out between 25-250° C.
VT-XRPD of HBI-3808 sodium salt of Pattern 5 was carried out between 25-250° C. (FIG. 5M). […] At 150° C., the diffractogram changed and was labelled as Pattern 7, indicating formation of HBI-3808 sodium salt of Pattern 7 (see Example 7). Diffractogram of Pattern 7, was observed between 150-250° C. Upon cooling to 25° C., Diffractogram of Pattern 5 was observed again, indicating reformation of HBI-3808 sodium salt of Pattern 5. Pattern 7 has some similarities with Pattern 6 (See Example 6). Both Patterns 6 and 7 may represent anhydrous forms of the HBI-3808 sodium salt. Starting concentration of the of HBI-3808 sodium salt of Pattern 5.
VT-XRPD was carried out according to the temperature program of Table 17B. […] At 210° C., the XRPD diffractogram was consistent with poorly crystalline BBI-3808 free acid of Pattern 1. Free acid (HBI-3808) of Pattern 1 was observed between 210-240° C.

[3] = tested on: Adult rats (Sprague Dawley) with MI by LAD ligation; test: Rat myocardial infarction model: pressure-volume catheter measurement; type: in vivo
Text: Animal Model and Myocardial Infarction: Adult rats (Sprague Dawley (SD), body weight, -250 g) were used to generate a model with MI by LAD ligation of the heart as described in the previous study (Chongyu Zhang, Meng-Hsuan Hsieh, Song-Yi Wu, Shu-Hong Li, Jun Wu, Shi-Ming Liu, Hao-Ji Wei, Richard D. Weisel, Hsing-Wen Sung, Ren-Ke Li, “A self-doping conductive polymer hydrogel that can restore electrical impulse propagation at myocardial infarct to prevent cardiac arrhythmia and preserve ventricular function,” Biomaterials, Volume 231, 2020, 119672, ISSN 0142-9612). In brief, each rat was pre-medicated with 5% isoflurane in a chamber.
The selected rats having similar FS were randomly divided into 6 groups: (1) Negative control group (treated with 40% SBCD); (2) Positive control group (with HBI-3802, 2 mg/kg /day); (3) Dose 1 (HBI-3808 2 mg/kg/day); (4) Dose 2 (HBI-3808 0.64 mg/kg day); (5) Dose 3 (HBI-3808 0.2 mg/kg/day); and (6) Sham control (No myocardial infarction and treated with 40% SBCD).
Oral Treatment: Six days after permanent LAD ligation, the selected rats received the first daily treatment. HBI-3808 (at 1 of the 3 doses) or 3802 at 2 mg/kg/day (1 ml/rat/day) delivered by gastric gavage daily for 14 days (2). 40% SB-CD alone (1 ml/rat/day) was similarly administered to rats in the control and sham groups.
Pressure-Volume Measurement: End-point functional and morphological assessments were performed at 21 days after first treatment (27 days post myocardial infarction). Each rat was anesthetized as described above (Myocardial Infarction), and ventilated. The sternotomy was performed, and a calibrated Millar conductance pressure-volume catheter (Millar Instruments, USA) was inserted into the LV cavity through the apex. Pressure and volume data were collected with the Millar software. Parallel conductance was evaluated after the injection of hypertonic saline solution into the right jugular vein, with the volume measurements corrected for the parallel conductance. To analyze the LV pressure and volume relationship, pressure and volume data were acquired, and real-time pressure-volume loops were constructed. Stroke work (SW) and dP/dt max (indices of systolic function) and dP/dt min and Tau_w (index of diastolic function) as well as LV volumes were compared between the groups.

[4] = tested on: human embryonic stem cells (hESCs); test: Induction of differentiation of hESCs to cardiomyocytes; type: cell-based
Description: In order to test the effect of HBI-3808 on human embryonic stem cells (hESCs) on stimulating differentiation to cardiomyocytes (CMs), hESCs were incubated in the presence of media (see legend, FIG. 31) or 100 ng/ml HBI-3808.

[5] = PO 5 mg/kg in enteric coated capsules
[6] = 2 mg/kg/day, vs 2 mg/kg HBI-3802, 0.64 and 0.2 mg/kg HBI-3808 and control, p<0.05 and 0.01

bioavailability ([1]; PO 1 mg/kg in 5% NMP+15% EtOH+10% tween 80+70% (20% Captisol in pH 7.4 PBS buffer)) [%] | bioavailability ([1]; PO 5 mg/kg in 5% NMP+15% EtOH+10% tween 80+70% (20% Captisol in pH 7.4 PBS buffer)) [%] | absorption onset delayed until [1, 5] [h] | bioavailability [1, 5] [%] | bioavailability ([1]; PO 5 mg/kg in normal capsules) [%] | temperature range in which diffractograms consistent with the input salt were observed [2] | Compound | dose dependence of Cmax and AUC ([1]; PO 1 and 5 mg/kg solution) | cardiac diastolic function ([3]; 0.2 mg/kg/day, vs control at 21 days after treatment, p<0.01) | cardiac systolic function ([3]; 0.2 mg/kg/day, vs control at 21 days after treatment, p<0.05) | left ventricular end systolic volumes (ESV) ([3]; 0.2 mg/kg/day, vs control, p<0.02) | Left ventricular end diastolic volumes (EDV) ([3]; 0.64 mg/kg/day, vs 0.2 mg/kg group, p<0.01) | stroke work (SW) and dP/dt max (indices of systolic function) ([3]; 2 mg/kg/day, 21 days after treatment, vs 2 mg/kg HBI-3802, 0.64 and 0.2 mg/kg HBI-3808 and control, p<0.01) | end diastolic volumes compared with non-infarcted sham animals ([3]; 2 mg/kg/day, Day 21) | dP/dt min and Tau_w (index of diastolic function) [3, 6] | left ventricular end systolic volumes (ESV) [3, 6] | Left ventricular end diastolic volumes (EDV) ([3]; 2 mg/kg/day, vs 0.64 and 0.2 mg/kg HBI-3808 and control, p<0.01) | differentiation of hESCs to cardiomyocytes (CMs) ([4]; 100 ng/ml HBI-3808, day 13) | modulation of cardiac-associated genes ([4]; 100 ng/ml, days 1, 3, 6, 9, 13)
17.9 | 27.7 | 8 | 10.9 | 10.7 | 25-115 °C | CC1CCC2(C(=O)[O-])CCC3(C)C(=CCC4C5(C)CC(O)C(O)C(C)(CO)C5CCC43C)C2C1(C)O.[Na+] (stereo not drawn) [HBI-3808 sodium salt of Pattern 5, sodium salt of 23-hydroxytormentic acid] | dose proportional increases with low variability | – | – | – | – | – | – | – | – | – | – | –
– | – | – | – | – | – | C[C@@H]1CC[C@]2(C(=O)O)CC[C@]3(C)C(=CCC4[C@@]5(C)C[C@@H](O)[C@H](O)[C@@](C)(CO)C5CC[C@]43C)C2[C@]1(C)O (stereo partly drawn) [HBI-3808, 23-hydroxytormentic acid] | – | better cardiac diastolic function compared with control group | better cardiac systolic function compared with control group | significantly smaller | significantly smaller | significantly greater | the same; also recorded: equivalent to non-infarcted sham animals | also improved | smaller | smaller | successfully stimulated hESCs to differentiate into viable, beating CMs by day 13 | produced detectable modulation of cardiac-associated genes
